From patent US8906115B2, “Method for the antimicrobial finishing of textiles and fibers” (Sanitized AG, priority 2006, dated 2014)

Tested on: Staphylococcus aureus 6538 P
Experiment: antibacterial effect / germ reduction of finished textiles after washing, test standard not stated
Format: cell-based
Details: less pronounced than tannic acid, gallic acid, stearic acid or L-phenylalanine
Procedure: The two samples finished in this way are washed at 40° C. and dried between the washing cycles. After 20 and 30 washing cycles, the antibacterial effect against Staphylococcus aureus 6538 P is tested.
In an experimental finishing. 14 kilograms of an orange colored tricot made of polyester/polyamide/elastan are prewashed at 60° C., then 280 grams of L-phenylalanine and 110 liters of water are added. Allow to prerun for 10 minutes, heated to 60° C. at 3° C. per minute and left to run for 15 minutes at 60° C. 80 grams of Sanitized T 99-19 in 2 liters of water are added and left to run for a further 30 minutes at 60° C. The liquor is cooled to 35° C. and then drawn off. 40 liters of water for rinsing are added, left to run for two minutes and the rinse water is drawn off. The textile is discharged via press-off rolls and dried on a tenter at 120° C. After 50 washing cycles in accordance with EN ISO 6330 (6A), washed with the colorfast detergent according to ECE 77, a sample achieves a germ count reduction of factor 100 (log reduction=2.0) compared with the inoculum.

SMILES	antimicrobial effect after washing when used as primer (P), in words
CCCCCCCCCCCCCCCCCCN [octadecylamine]	improvement in the antimicrobial effect after washing
O=C(O)c1ccc(C(=O)O)cc1 [terephthalic acid, benzene-1,4-dicarboxyolic acid]	improvement in the antimicrobial effect after washing
